Experimental data reported in ChEMBL document CHEMBL1138101, “Heteroaryl substituted bis-trifluoromethyl carbinols as malonyl-CoA decarboxylase inhibitors” (Bioorg Med Chem Lett, 2006).

Molecular target: T1, Malonyl-CoA decarboxylase, mitochondrial (Homo sapiens, UniProt O95822)
T1 sequence (O95822 whole entry): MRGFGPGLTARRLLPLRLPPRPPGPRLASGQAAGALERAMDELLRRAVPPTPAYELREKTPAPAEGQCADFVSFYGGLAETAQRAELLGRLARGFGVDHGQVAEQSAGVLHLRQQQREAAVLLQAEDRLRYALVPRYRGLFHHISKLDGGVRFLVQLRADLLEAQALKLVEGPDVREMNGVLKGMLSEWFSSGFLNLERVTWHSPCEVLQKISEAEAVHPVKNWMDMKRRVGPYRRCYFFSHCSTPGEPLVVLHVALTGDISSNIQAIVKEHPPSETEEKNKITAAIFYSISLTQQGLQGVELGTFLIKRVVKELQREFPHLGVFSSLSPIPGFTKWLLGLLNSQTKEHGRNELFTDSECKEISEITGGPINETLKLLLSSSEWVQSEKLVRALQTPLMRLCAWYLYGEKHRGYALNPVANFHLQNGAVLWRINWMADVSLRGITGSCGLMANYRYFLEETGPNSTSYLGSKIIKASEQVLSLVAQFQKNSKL

`CC(C)C(=O)N(CC1CCCO1)c1ncc(C(O)(C(F)(F)F)C(F)(F)F)s1` (stereo unspecified) showed an IC50 of 1580 nM.
